The structures appear in SMILES notation.

Results on two molecules are retold here after US20230149562A1 (priority 2020, published 2023).

One experiment deals with 293T cells. Kind of experiment: In vitro SEAP expression via QuantiBlue assay, DNA nanoparticles. Format: cell-based. Conditions: 24 hours post-treatment. Here is the method: To test the ability of these nanoparticles to express SEAP in vitro, 293T cells were treated with nanoparticles. Each well of a 96 well dish of 293 Ts was treated with 10 μL (approximately 0.25 μg) of each formulation product diluted into a final volume of 200 μL with a 1:1 Optimem:PBS mix. The nontreated wells had 200 μL of 50/50 PBS/OptiMEM. Twenty four hours post-treatment or transfection, conditioned media from each culture was collected. Media was analyzed using the QuantiBlue assay (InvivoGen). 180 μL QuantiBlue reagent was combined with 50 μL of media from wells. Readings were taken after 40 minutes by measuring absorbance at 650 nm as directed by the manufacturer's protocol. For the no treatment Negative Control, 50 μL of media from a well not treated with nanoparticles was added to 180 μL QuantiBlue Reagent. These samples were treated the same way as all other samples in all steps of the assay.
FIG. 11 illustrates in vitro SEAP expression of nanoparticle formulations with modified dendrimers used to treat 293T cells.

Experiment [1] relates to Influenza A virus (PR/8/34). Kind of experiment: Hemagglutinin Inhibition Assay (HAI) on vaccinated animal sera.
Method: HAI tests were performed on vaccinated animal sera according to the standard recommended WHO protocol [World Health Organization. […] Sera were treated with receptor destroying enzyme (Denka Seiken Co. Ltd, Tokyo, Japan) at 37° C. overnight then heat inactivated for 30 minutes at 56° C. After cooling down to RT, those serum samples were mixed with 2 volume of 25% suspension of turkey red blood cells (RBC, Rockland Immunochemicals) and incubated at room temperature for 2 hours followed by centrifugation to remove RBC. The treated sera, now considered to be at a 1:10 dilution, were serially diluted and incubated with 4 HA units of inactivated Influenza A virus (PR/8/34, Virusys #IAV210) for 30 minutes at room temperature. An equal volume of 0.5% turkey RBC was added to each well and incubated for 30 minutes at room temperature.

Consider `CCCCCCCCCCCCCCCCC(=O)NCCCN(C)CCCNC(=O)OCC(C)(COC(=O)NCCCN(C)CCCNC(=O)CCCCCCCCCCCCCCCC)C(=O)OCC(CC)(COC(=O)C(C)(COC(=O)NCCCN(C)CCCNC(=O)CCCCCCCCCCCCCCCC)COC(=O)NCCCN(C)CCCNC(=O)CCCCCCCCCCCCCCCC)COC(=O)C(C)(COC(=O)NCCCN(C)CCCNC(=O)CCCCCCCCCCCCCCCC)COC(=O)NCCCN(C)CCCNC(=O)CCCCCCCCCCCCCCCC` [PE-Heptadecanoic], for which, in the experiment with 293T cells, the “in vitro SEAP expression” value was “resulted in SEAP expression”.

For `CCCCCCCC/C=C\CCCCCCCC(=O)NCCCN(C)CCCNC(=O)OCC(C)(COC(=O)NCCCN(C)CCCNC(=O)CCCCCCC/C=C\CCCCCCCC)C(=O)OCC(CC)(COC(=O)C(C)(COC(=O)NCCCN(C)CCCNC(=O)CCCCCCC/C=C\CCCCCCCC)COC(=O)NCCCN(C)CCCNC(=O)CCCCCCC/C=C\CCCCCCCC)COC(=O)C(C)(COC(=O)NCCCN(C)CCCNC(=O)CCCCCCC/C=C\CCCCCCCC)COC(=O)NCCCN(C)CCCNC(=O)CCCCCCC/C=C\CCCCCCCC` [PE-Oleic], the “average HI titer” value in experiment [1] (week 4, after prime vaccination, 5 μg nanoparticle vaccine, HA mRNA) came to 40; in experiment [1] (week 5, one week after boost immunization, 5 μg) it was 192. Moreover, in the experiment on 293T cells, the “in vitro SEAP expression” value is “resulted in SEAP expression”.
